{"source": "patent US20240158348A1", "about": "“HERBICIDAL CYCLIC AMIDES N-SUBSTITUTED WITH A HALOALKYLSULFONYLANILIDE GROUP” (FMC Corporation, priority 2021, published 2024)", "assay_type_in_all_cases": "in vivo", "key": {"[1]": {"test_system": "blackgrass (Alopecurus myosuroides)", "test": "Test C preemergence, blackgrass", "conditions": "0 is no effect, 100 is complete control", "from_the_text": "Seeds of plant species selected from blackgrass (Alopecurus myosuroides), corn (Zea mays), foxtail, giant (giant foxtail, Setaria faberi), goosegrass (Eleusine indica), kochia (Bassia scoparia), oat, wild (wild oat, Avena fatua), pigweed, palmer (palmer amaranth, Amaranthus palmeri), ragweed (common ragweed, Ambrosia artemisiifolia), ryegrass, Italian (Italian ryegrass, Lolium multiflorum), soybean (Glycine max) and wheat (Triticum aestivum) were planted into a blend of loam soil and sand and treated preemergence with a directed soil spray using test chemicals formulated in a non-phytotoxic solvent mixture which included a surfactant.\nAt the same time, plants selected from these crop and weed species and also galium (catchweed bedstraw, Galium aparine) and horseweed (Erigeron canadensis) were planted in pots containing the same blend of loam soil and sand and treated with postemergence applications of test chemicals formulated in the same manner. Plants ranged in height from 2 to 10 cm and were in the one- to two-leaf stage for the postemergence treatment. Treated plants and untreated controls were maintained in a greenhouse for 10 or 12 days, after which time all treated plants were compared to untreated controls and visually evaluated for injury. Plant response ratings, summarized in Table A, are based on a 0 to 100 scale where 0 is no effect and 100 is complete control. A dash (-) response means no test result."}, "corn (Zea mays) [2]": {"test_system": "corn (Zea mays)", "test": "Test C preemergence, corn", "conditions": "0 is no effect, 100 is complete control", "in_short": "(§1)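 Steps: sow in loam soil blended with sand; treat soil preemergence by directed spray, or treat young plants (2–10 cm, one to two leaves) postemergence; hold in greenhouse 10 or 12 days; rate injury visually relative to untreated controls on a 0–100 scale.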"}, "[3]": {"test_system": "foxtail, giant (giant foxtail, Setaria faberi)", "test": "Test C preemergence, giant foxtail", "conditions": "0 is no effect, 100 is complete control", "in_short": "as §1"}, "[4]": {"test_system": "goosegrass (Eleusine indica)", "test": "Test C preemergence, goosegrass", "conditions": "0 is no effect, 100 is complete control", "in_short": "as §1"}, "kochia (Bassia scoparia) [5]": {"test_system": "kochia (Bassia scoparia)", "test": "Test C preemergence, kochia", "conditions": "0 is no effect, 100 is complete control", "in_short": "as §1"}, "[6]": {"test_system": "oat, wild (wild oat, Avena fatua)", "test": "Test C preemergence, wild oat", "conditions": "0 is no effect, 100 is complete control", "in_short": "as §1"}, "[7]": {"test_system": "pigweed, palmer (palmer amaranth, Amaranthus palmeri)", "test": "Test C preemergence, palmer amaranth", "conditions": "0 is no effect, 100 is complete control", "in_short": "as §1"}, "[8]": {"test_system": "ragweed (common ragweed, Ambrosia artemisiifolia)", "test": "Test C preemergence, ragweed", "conditions": "0 is no effect, 100 is complete control", "in_short": "as §1"}, "[9]": {"test_system": "ryegrass, Italian (Italian ryegrass, Lolium multiflorum)", "test": "Test C preemergence, Italian ryegrass", "conditions": "0 is no effect, 100 is complete control", "in_short": "as §1"}, "soybean (Glycine max) [10]": {"test_system": "soybean (Glycine max)", "test": "Test C preemergence, soybean", "conditions": "0 is no effect, 100 is complete control", "in_short": "as §1"}, "[11]": {"test_system": "wheat (Triticum aestivum)", "test": "Test C preemergence, wheat", "conditions": "0 is no effect, 100 is complete control"}, "[12]": {"test_system": "blackgrass (Alopecurus myosuroides)", "test": "Test C postemergence, blackgrass", "conditions": "31 g ai/ha Postemergence; visual injury, 0 to 100 scale (0 no effect, 100 complete control)", "in_short": "as §1"}, "corn (Zea mays) [13]": {"test_system": "corn (Zea mays)", "test": "Test C postemergence, corn"}, "[14]": {"test_system": "foxtail, giant (giant foxtail, Setaria faberi)", "test": "Test C postemergence, giant foxtail"}, "[15]": {"test_system": "goosegrass (Eleusine indica)", "test": "Test C postemergence, goosegrass", "in_short": "as §1"}, "kochia (Bassia scoparia) [16]": {"test_system": "kochia (Bassia scoparia)", "test": "Test C postemergence, kochia", "in_short": "as §1"}, "[17]": {"test_system": "oat, wild (wild oat, Avena fatua)", "test": "Test C postemergence, wild oat"}, "[18]": {"test_system": "pigweed, palmer (palmer amaranth, Amaranthus palmeri)", "test": "Test C postemergence, palmer amaranth", "in_short": "as §1"}, "[19]": {"test_system": "ragweed (common ragweed, Ambrosia artemisiifolia)", "test": "Test C postemergence, ragweed", "in_short": "as §1"}, "[20]": {"test_system": "ryegrass, Italian (Italian ryegrass, Lolium multiflorum)", "test": "Test C postemergence, Italian ryegrass", "in_short": "as §1"}, "soybean (Glycine max) [21]": {"test_system": "soybean (Glycine max)", "test": "Test C postemergence, soybean"}, "[22]": {"test_system": "wheat (Triticum aestivum)", "test": "Test C postemergence, wheat", "in_short": "as §1"}, "[23]": {"test_system": "galium (catchweed bedstraw, Galium aparine)", "test": "Test C postemergence, galium"}, "[24]": {"test_system": "horseweed (Erigeron canadensis)", "test": "Test C postemergence, horseweed", "in_short": "as §1"}, "[25]": {"test_system": "barnyardgrass (Echinochloa crusgalli)", "test": "Test D flooded paddy test, barnyardgrass", "set-up": "key: 0 = no effect, 100 = complete control", "conditions": "250 g ai/ha, Flood; applied to paddy water at 2-leaf stage; visual rating after 13 days; scale 0 (no effect) to 100 (complete control)", "in_short": "(§2)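 2-leaf plants; flood 3 cm over soil; cpd into paddy water; depth maintained; greenhouse 13 d; visual rating vs controls, 0 = no effect, 100 = complete control; dash = no result.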"}, "[26]": {"test_system": "ducksalad (Heteranthera limosa)", "test": "Test D flooded paddy test, ducksalad", "set-up": "key: 0 = no effect, 100 = complete control", "conditions": "250 g ai/ha, Flood; applied to paddy water at 2-leaf stage; visual rating after 13 days; scale 0 (no effect) to 100 (complete control)", "in_short": "as §2"}, "rice (Oryza sativa)": {"test_system": "rice (Oryza sativa)", "test": "Test D flooded paddy test, rice", "set-up": "key: 0 = no effect, 100 = complete control", "conditions": "250 g ai/ha, Flood; applied to paddy water at 2-leaf stage; visual rating after 13 days; scale 0 (no effect) to 100 (complete control)", "in_short": "as §2"}, "[27]": {"test_system": "sedge, umbrella (small-flower umbrella sedge, Cyperus difformis)", "test": "Test D flooded paddy test, umbrella sedge", "set-up": "key: 0 = no effect, 100 = complete control", "conditions": "250 g ai/ha, Flood; applied to paddy water at 2-leaf stage; visual rating after 13 days; scale 0 (no effect) to 100 (complete control)", "in_short": "as §2"}, "[28]": {"test_system": "blackgrass (Alopecurus myosuroides)", "test": "Test C postemergence, blackgrass", "conditions": "125 g ai/ha Postemergence; 0 is no effect, 100 is complete control"}, "[29]": {"conditions": "31 g ai/ha Postemergence, visual injury, 0 to 100 scale (0 no effect, 100 complete control)"}, "[30]": {"conditions": "125 g ai/ha Postemergence, 0 is no effect, 100 is complete control"}}}
{"smiles": "Cc1cc(C)c(N(C(=O)OCC(C)C)S(=O)(=O)C(F)(F)F)cc1N1CCC(OC2CC2)C1=O", "note": "(stereo not shown) [Compound 21]", "values": [{"measurement": "Plant response rating (0 to 100 scale), Blackgrass", "setting": "[1]; 31 g ai/ha Preemergence", "value": 10}, {"measurement": "Plant response rating (0 to 100 scale), Blackgrass", "setting": "[1]; 125 g ai/ha Preemergence", "value": 80}, {"measurement": "Plant response rating (0 to 100 scale), Corn", "setting": "corn (Zea mays) [2]; 31 g ai/ha Preemergence", "value": 20}, {"measurement": "Plant response rating (0 to 100 scale), Corn", "setting": "corn (Zea mays) [2]; 125 g ai/ha Preemergence", "value": 90}, {"measurement": "Plant response rating (0 to 100 scale), Foxtail, Giant", "setting": "[3]; 31 g ai/ha Preemergence", "value": 100}, {"measurement": "Plant response rating (0 to 100 scale), Foxtail, Giant", "setting": "[3]; 125 g ai/ha Preemergence", "value": 100}, {"measurement": "Plant response rating (0 to 100 scale), Goosegrass", "setting": "[4]; 31 g ai/ha Preemergence", "value": 90}, {"measurement": "Plant response rating (0 to 100 scale), Goosegrass", "setting": "[4]; 125 g ai/ha Preemergence", "value": 100}, {"measurement": "Plant response rating (0 to 100 scale), Kochia", "setting": "kochia (Bassia scoparia) [5]; 31 g ai/ha Preemergence", "value": 60}, {"measurement": "Plant response rating (0 to 100 scale), Kochia", "setting": "kochia (Bassia scoparia) [5]; 125 g ai/ha Preemergence", "value": 90}, {"measurement": "Plant response rating (0 to 100 scale), Oat, Wild", "setting": "[6]; 31 g ai/ha Preemergence", "value": 30}, {"measurement": "Plant response rating (0 to 100 scale), Oat, Wild", "setting": "[6]; 125 g ai/ha Preemergence", "value": 90}, {"measurement": "Plant response rating (0 to 100 scale), Pigweed, Palmer", "setting": "[7]; 31 g ai/ha Preemergence", "value": 100}, {"measurement": "Plant response rating (0 to 100 scale), Pigweed, Palmer", "setting": "[7]; 125 g ai/ha Preemergence", "value": 100}, {"measurement": "Plant response rating (0 to 100 scale), Ragweed", "setting": "[8]; 31 g ai/ha Preemergence", "value": 40}, {"measurement": "Plant response rating (0 to 100 scale), Ragweed", "setting": "[8]; 125 g ai/ha Preemergence", "value": 80}, {"measurement": "Plant response rating (0 to 100 scale), Ryegrass, Italian", "setting": "[9]; 31 g ai/ha Preemergence", "value": 70}, {"measurement": "Plant response rating (0 to 100 scale), Ryegrass, Italian", "setting": "[9]; 125 g ai/ha Preemergence", "value": 100}, {"measurement": "Plant response rating (0 to 100 scale), Soybean", "setting": "soybean (Glycine max) [10]; 31 g ai/ha Preemergence", "value": 0}, {"measurement": "Plant response rating (0 to 100 scale), Soybean", "setting": "soybean (Glycine max) [10]; 125 g ai/ha Preemergence", "value": 60}, {"measurement": "Plant response rating (0 to 100 scale), Wheat", "setting": "[11]; 31 g ai/ha Preemergence", "value": 10}, {"measurement": "Plant response rating (0 to 100 scale), Wheat", "setting": "[11]; 125 g ai/ha Preemergence", "value": 90}, {"measurement": "Blackgrass plant response rating", "setting": "[12]", "value": 40}, {"measurement": "Corn plant response rating", "setting": "corn (Zea mays) [13]; [29]", "value": 90}, {"measurement": "Plant response rating (0 to 100 scale), Corn", "setting": "corn (Zea mays) [13]; [30]", "value": 90}, {"measurement": "Foxtail, Giant plant response rating", "setting": "[14]; [29]", "value": 40}, {"measurement": "Plant response rating (0 to 100 scale), Foxtail, Giant", "setting": "[14]; [30]", "value": 90}, {"measurement": "Goosegrass plant response rating", "setting": "[15]; [29]", "value": 90}, {"measurement": "Plant response rating (0 to 100 scale), Goosegrass", "setting": "[15]; [30]", "value": 90}, {"measurement": "Kochia plant response rating", "setting": "kochia (Bassia scoparia) [16]; [29]", "value": 70}, {"measurement": "Plant response rating (0 to 100 scale), Kochia", "setting": "kochia (Bassia scoparia) [16]; [30]", "value": 80}, {"measurement": "Oat, Wild plant response rating", "setting": "[17]; [29]", "value": 40}, {"measurement": "Plant response rating (0 to 100 scale), Oat, Wild", "setting": "[17]; [30]", "value": 70}, {"measurement": "Pigweed, Palmer plant response rating", "setting": "[18]; [29]", "value": 30}, {"measurement": "Plant response rating (0 to 100 scale), Pigweed, Palmer", "setting": "[18]; [30]", "value": 70}, {"measurement": "Ragweed plant response rating", "setting": "[19]; [29]", "value": 80}, {"measurement": "Plant response rating (0 to 100 scale), Ragweed", "setting": "[19]; [30]", "value": 90}, {"measurement": "Ryegrass, Italian plant response rating", "setting": "[20]; [29]", "value": 50}, {"measurement": "Plant response rating (0 to 100 scale), Ryegrass, Italian", "setting": "[20]; [30]", "value": 100}, {"measurement": "Soybean plant response rating", "setting": "soybean (Glycine max) [21]; [29]", "value": 60}, {"measurement": "Plant response rating (0 to 100 scale), Soybean", "setting": "soybean (Glycine max) [21]; [30]", "value": 60}, {"measurement": "Wheat plant response rating", "setting": "[22]; [29]", "value": 10}, {"measurement": "Plant response rating (0 to 100 scale), Wheat", "setting": "[22]; [30]", "value": 50}, {"measurement": "Galium plant response rating", "setting": "[23]; [29]", "value": 100}, {"measurement": "Plant response rating (0 to 100 scale), Galium", "setting": "[23]; [30]", "value": 100}, {"measurement": "Horseweed plant response rating", "setting": "[24]; [29]", "value": 60}, {"measurement": "Plant response rating (0 to 100 scale), Horseweed", "setting": "[24]; [30]", "value": 90}, {"measurement": "Plant response rating, Barnyardgrass", "setting": "[25]", "value": 95}, {"measurement": "Plant response rating, Ducksalad", "setting": "[26]", "value": 98}, {"measurement": "Plant response rating, Rice", "setting": "rice (Oryza sativa)", "value": 85}, {"measurement": "Plant response rating, Sedge, Umbrella", "setting": "[27]", "value": 98}, {"measurement": "Plant response rating (0 to 100 scale), Blackgrass", "setting": "[28]", "value": 80}]}
